# Experimental data as given in patent US9258995B2, “Organ cold storage composition and methods of use” (BOARD OF TRUSTEES OF THE UNIVERSITY OF ARKANSAS, priority 2009, dated 2016).
# “Also recorded” adds a separate entry of the source.
# Tests used:
# porcine kidneys = assay: Nitrotyrosine staining of porcine kidneys during cold preservation; parameters: dose or concentration left out as unconfirmed
# Description: FIG. 14 depicts micrographs and plots showing increased nitrotyrosine protein expression detected during cold preservation. (A) Representative images showing MitoQ (100 mM) mediated reduction of nitrotyrosine staining. (B) Expression level of total (combined cortex and medulla) nitrotyrosine was evaluated and scored. (C) Expression level of cortical and medulla nitrotyrosine was evaluated and scored. Error bar indicates Mean SEM (n=4). *P<0.05 compared to untreated kidneys at 24 and 48 hr within the cortex.
# Nitrotyrosine staining and nitrotyrosine expression levels were used to determine protective effect of MitoQ on porcine kidneys during SC.
# [1] = system: mitochondrial respiratory complex; assay: Mitochondrial respiratory complex activity in kidneys following cold storage (Example 1); parameters: species or system rat; conditions: following cold preservation (Example 1); MitoQ 100 μM
# Description: FIG. 4 depicts a graph showing the effect of MitoQ treatment (100 μM) on mitochondrial respiratory complex activity in kidneys following cold storage *P<0.05 compared with control.
# (§1) Rodent models of warm ischemia/reperfusion (I/R) (FIGS. 6-7) and cold renal preservation, as well as renal cell models of cold storage (FIG. 3-5) were used to evaluate the effectiveness of MitoQ in preventing renal damage during ischemia. […] In addition, Mito Q blunted mitochondrial superoxide production (Mitosox Red staining) and respiratory complex dysfunction following cold preservation (FIGS. 4-5).
# rat kidneys [2] = assay: TUNEL staining of renal cell death during CS; conditions: 4 h CS, 100 μM
# Description: All animals were treated according to the National Institutes of Health Guide for the Care and Use of Laboratory Animals and the University of Arkansas for Medical Sciences Institutional Animal Care and Use Committee guidelines. Male Fischer 344 inbred rats (Charles Rivers Laboratories, Inc., Wilmington, Mass.) weighing between 250 and 300 g were anesthetized with ethrane, followed by shaving and prepping with betadine. […] Bulldog clamps were placed on the aorta and vena cava (proximal and distal to the renal vessels) to prevent blood flow to the kidneys. A 22-gauge surgical needle was used to puncture the rat's aorta to flush the renal grafts with saline (10 ml per kidney) using a small catheter. Once the kidneys started to turn light brown (perfusion), another vent was formed in the vena cava to allow blood flow from the kidneys. […]
# Cell cytotoxicity was determined using the LDH-Cytotoxicity Assay Kit II (Biovision Research Products, Mountain View, Calif.) according to the manufacturer's instructions. Absorbance was measured at 450 nm using a SpectraMax 190 microplate reader and SpectraMax software (Molecular Devices, Sunnyvale, Calif.). Renal cell death was determined using TUNEL staining. […] The amount of cell death was calculated by averaging the number of cells positive for TUNEL (brown staining) in 10 different fields (cortex and medulla) (20×). […]
# rat kidneys [3] = assay: Rodent model of warm ischemia/reperfusion (I/R); format: in vivo; conditions: rat kidneys following warm I/R; MitoQ 48 hr oral; 100 μM
# Source text: as §1
# [4] = system: mitochondrial respiratory complex I; assay: Mitochondrial respiratory complex activity, NRK cell mitochondria after CS; format: cell-based, rat; conditions: NRK cells, 4-h CS, 1 μM
# Description: (§2) Normal rat kidney proximal tubular cells (NRK-52E; American Type Culture Collection, Manassas, Va.) were maintained in six-well 100 or 150-mm, or 150-mm plates in a humidified incubator gassed with 5% CO2 and 95% air at 37° C. in DMEM (Invitrogen, Carlsbad, Calif.) containing 5% fetal calf serum (FCS). Cells were grown to 60% confluence and divided into four treatment groups: 1) untreated (Untx), 2) CS, 3) CS+MitoQ, and 4) CS+DecylTPP. Untreated cells remained at 37° C. in DMEM containing 5% FCS (group 1). CS was initiated by washing cells with cold PBS (Invitrogen) twice and storing them in UW/Viaspan solution alone (4 h at 4° C.) (group 2), CS+MitoQ (1 μM) (group 3), or CS+DecylTPP (1 μM) (group 4). In separate experiments, cells were exposed to CS plus RW by replacing UW solution alone or UW solution containing MitoQ or DecylTPP with DMEM containing 5% FCS overnight (18 h at 37° C.).
# (§3) NRK cell and rat kidney mitochondria were isolated by centrifugation on a sucrose density gradient. The activity of mitochondrial respiratory complexes I, II, III, or IV were assayed spectrophotometrically using 100 μg of mitochondrial protein at 30° C. as previously described.
# [5] = system: mitochondrial respiratory complex II; assay: as above; format: cell-based, rat; conditions: NRK cells, 4-h CS, 1 μM
# Description: as §2, §3
# [6] = porcine kidneys during cold preservation
smiles,measurement,setting,value
"COC1=C(OC)C(=O)C(CCCCCCCCCC[P+](c2ccccc2)(c2ccccc2)c2ccccc2)=C(C)C1=O [MitoQ, mitoquinone]","nitrotyrosine expression levels, combined cortex and medulla",porcine kidneys; [6],reduced
same,nitrotyrosine staining,porcine kidneys; [6],significantly decreased; also recorded: reduction
same,nitrotyrosine expression levels in the cortex,"porcine kidneys; porcine kidneys, 24 and 48 hr",significantly lower
same,respiratory complex dysfunction,[1],blunted
same,decrease of cell death (TUNEL) compared with CS kidneys,rat kidneys [2],~2 fold
same,MnSOD activity,rat kidneys [3],improved
same,complex I inactivation,[4],completely prevented
same,complex II inactivation,[5],completely prevented
